Data: US11149035B2, “Chemical compounds as H—PGDS inhibitors” (GlaxoSmithKline Intellectual Property Development Limited, priority 2017, dated 2021)

Molecular target: T1, haematopoietic prostaglandin D synthase (H-PGDS) (Homo sapiens, UniProt O60760)
T1 construct: Full length human H-PGDS cDNA (Invitrogen Ultimate ORF IOH13026) was amplified by PCR; 6-His (N); TEV protease cleavage site (N); made in house; host or cells: E. coli BL21 (DE3*)
Assay: H-PGDS RapidFire high throughput mass spectrometry assay (conversion of PGH2 to PGD2)
Format: biochemical
Details: 10 nM H-PGDS, PGH2 formed in situ by COX-2 from arachidonic acid; four parameter curve fit; read-out: Potency Range (mean pIC50) (converted)
Experimental: The H-PGDS RapidFire™ mass spectrometric assay monitors conversion of prostaglandin H2 (PGH2) to prostaglandin D2 (PGD2) by haematopoietic prostaglandin D synthase (H-PGDS). In the assay format described here, the substrate (PGH2) is formed in situ by the action of cyclooxygenase-2 on arachidonic acid. This first step is set up to be fast, and generates a burst of PGH2 at ˜10 μM. The PGH2 is then further converted to PGD2 by the H-PGDS enzyme. […] Plates are then read on the RapidFire™ high throughput solid phase extraction system (Agilent) which incorporates a solid phase extraction step coupled to a triple quadrupole mass spectrometer (AB SCIEX). Relative levels of PGD2 and PGF2α, which acts as a surrogate for substrate, are measured and a percent conversion calculated. Inhibitors are characterised as compounds which lower the conversion of PGH2 to PGD2.
Full length human H-PGDS cDNA (Invitrogen Ultimate ORF IOH13026) was amplified by PCR with the addition of a 5′ 6-His tag and TEV protease cleavage site. The PCR product was digested with NdeI and XhoI and ligated into pET22b+ (Merck Novagen®). Expression was carried out in E. coli strain BL21 (DE3*) using auto-induction Overnight Express™ Instant TB medium (Merck Novagen®) supplemented with 1% glycerol. The culture was first grown at 37° C. and the temperature was reduced to 25° C. when OD600 reached 2.0. Cells were harvested by centrifugation after a further 18 hours. 10 g of E. coli cell pellet was suspended to a total volume of 80 mL in lysis buffer (20 mM Tris-Cl pH 7.5, 300 mM NaCl, 20 mM imidazole, 5 mM β-mercaptoethanol, 10% glycerol). 1 mg/mL protease inhibitors (Protease Inhibitor Cocktail Set III, Merck Calbiochem®) and 1 mg/mL lysozyme were added to the cell suspension. The suspension was then sonicated for 5 min (UltraSonic Processor VCX 750, Cole-Parmer Instrument Co.) with a micro probe (50% amplitude, 10 sec on/off) and then centrifuged at 100,000 g for 90 minutes (at 4° C.). The supernatant was loaded onto a Ni-NTA HiTrap column (5 mL, GE Healthcare, pre-equilibrated in lysis buffer). The column was washed with 10 column volumes of lysis buffer and eluted with lysis buffer containing 500 mM imidazole. The pooled protein peak fractions were concentrated using a 10 kDa centrifugal filter at 3500 g and 4° C. (Amicon Ultra-15 centrifugal filter unit with Ultracel-10 membrane from Millipore). Further purification of the concentrated protein was carried out using gel filtration chromatography on a HiLoad 26/600 Superdex 75 preparative grade column (GE Healthcare Life Sciences) using 50 mM Tris pH 7.5, 50 mM NaCl, 1 mM dithiothreitol, 1 mM MgCl2. Fractions containing the protein were pooled, concentrated as described above, and stored at −80° C.
The full length human COX-2 gene (accession number L15326) was amplified by PCR to generate an EcoRI—HindIII fragment containing an in-frame FLAG tag. This was subcloned into pFastBac 1 (Invitrogen). The COX-2 FLAG plasmid was recombined into the baculovirus genome according to the BAC-to-BAC protocol described by Invitrogen. Transfection into Spodoptera frugiperda (Sf9) insect cells was performed using Cellfectin (Invitrogen), according to the manufacturer's protocol. Super Sf9 cells were cultured in EX420 media (SAFC Biosciences) to a density of approximately 1.5×10^6 cells/mL within a wave bioreactor. Recombinant virus was added at a Multiplicity of Infection (MOI) of 5 and the culture was allowed to continue for 3 days. Cells were harvested using a continuous feed centrifuge run at 2500 g at a rate of approximately 2 L/min with cooling. The resultant cell slurry was re-centrifuged in pots (2500 g, 20 min, 4° C.) and the cell paste was stored at −80° C. 342 g of cell paste was re-suspended to a final volume of 1600 mL in a buffer of 20 mM Tris-Cl pH 7.4, 150 mM NaCl, 0.1 mM EDTA, 1.3% w/v n-octyl-[…] containing 20 Complete EDTA-free Protease Inhibitor Cocktail tablets (Roche Applied Science). […]

T1 sequence (O60760 whole entry): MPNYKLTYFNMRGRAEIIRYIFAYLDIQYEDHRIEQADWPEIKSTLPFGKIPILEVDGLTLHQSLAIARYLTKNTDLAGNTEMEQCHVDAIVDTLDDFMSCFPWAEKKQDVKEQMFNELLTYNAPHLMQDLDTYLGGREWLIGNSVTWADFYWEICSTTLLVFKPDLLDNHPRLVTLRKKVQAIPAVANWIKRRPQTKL

In the case of `CC1CCN1c1ccc2cc(C(=O)N[C@H]3CC[C@H](C(C)(C)O)CC3)cnc2n1` (mixture of isomers) [Example 7, N-(trans-4-(2-Hydroxypropan-2-yl)cyclohexyl)-7-(2-methylazetidin-1-yl)-1,8-naphthyridine-3-carboxamide], the IC50 is reported as 10 to 79.4 nM.
For `CC1CCN1c1cc2ncc(C(=O)N[C@H]3CC[C@H](C(C)(C)O)CC3)cc2cn1` (mixture of isomers) [Example 11, N-(trans-4-(2-Hydroxypropan-2-yl)cyclohexyl)-7-(2-methylazetidin-1-yl)-1,6-naphthyridine-3-carboxamide], the IC50 was 10 to 79.4 nM.
`CC(C)(O)C1CC2(CC(NC(=O)c3cnc4cc(C5CC5)ncc4c3)C2)C1` (racemic) [Example 34, 7-Cyclopropyl-N-(6-(2-hydroxypropan-2-yl)spiro[3.3]heptan-2-yl)-1,6-naphthyridine-3-carboxamide] gave an IC50 of less than 10 nM.
`CC(N[C@H]1CC[C@H](NC(=O)c2cnc3cc(C4CC4)ncc3c2)CC1)C(F)F` (mixture of isomers) [Example 39, 7-cyclopropyl-N-(trans-4-((1,1-difluoropropan-2-yl)amino)cyclohexyl)-1,6-naphthyridine-3-carboxamide] was tested, and the IC50 was 10 to 79.4 nM.
In the case of `CC(C)(O)C1CC2(CC(NC(=O)c3cnc4nc(C5CC5)ccc4c3)C2)C1` (racemic) [Example 49, 7-Cyclopropyl-N-(6-(2-hydroxypropan-2-yl)spiro[3.3]heptan-2-yl)-1,8-naphthyridine-3-carboxamide], the IC50 is reported as 10 to 79.4 nM.
`CC(N[C@H]1CC[C@H](NC(=O)c2cnc3nc(C4CC4)ccc3c2)CC1)C(F)F` (mixture of isomers) [Example 57, 7-Cyclopropyl-N-(trans-4-((1,1-difluoropropan-2-yl)amino)cyclohexyl)-1,8-naphthyridine-3-carboxamide] gave an IC50 of 10 to 79.4 nM.
Work on `CC(C)(O)[C@H]1CC[C@H](NC(=O)c2cnc3ccncc3c2)CC1` [Example 1, N-(trans-4-(2-Hydroxypropan-2-yl)cyclohexyl)-1,6-naphthyridine-3-carboxamide] yielded an IC50 of 1260 to 10000 nM.
Molecule `CC(C)(O)[C@H]1CC[C@H](NC(=O)c2cnc3ncccc3c2)CC1` [Example 2, N-(trans-4-(2-Hydroxypropan-2-yl)cyclohexyl)-1,8-naphthyridine-3-carboxamide] has an IC50 of 1260 to 10000 nM.
`CC(C)(O)[C@H]1CC[C@H](NC(=O)c2cnc3cc(N4CC(F)C4)ncc3c2)CC1` [Example 3, 7-(3-Fluoroazetidin-1-yl)-N-(trans-4-(2-hydroxypropan-2-yl)cyclohexyl)-1,6-naphthyridine-3-carboxamide] showed an IC50 of 10 to 79.4 nM.
In the case of `CC(C)(O)[C@H]1CC[C@H](NC(=O)c2cnc3cc(N4CCC4)ncc3c2)CC1` [Example 4, 7-(Azetidin-1-yl)-N-(trans-4-(2-hydroxypropan-2-yl)cyclohexyl)-1,6-naphthyridine-3-carboxamide], the IC50 is reported as less than 10 nM.
`CC(C)(O)[C@H]1CC[C@H](NC(=O)c2cnc3nc(N4CCC4)ccc3c2)CC1` [Example 5, 7-(Azetidin-1-yl)-N-(trans-4-(2-hydroxypropan-2-yl)cyclohexyl)-1,8-naphthyridine-3-carboxamide] gave an IC50 of less than 10 nM.
`CC(C)(O)[C@H]1CC[C@H](NC(=O)c2cnc3nc(N4CC(F)C4)ccc3c2)CC1` [Example 6, 7-(3-Fluoroazetidin-1-yl)-N-(trans-4-(2-hydroxypropan-2-yl)cyclohexyl)-1,8-naphthyridine-3-carboxamide] was tested, and the IC50 was 10 to 79.4 nM.
Work on `C[C@@H]1CCN1c1ccc2cc(C(=O)N[C@H]3CC[C@H](C(C)(C)O)CC3)cnc2n1` [Example 8, N-(trans-4-(2-Hydroxypropan-2-yl)cyclohexyl)-7-((R)-2-methylazetidin-1-yl)-1,8-naphthyridine-3-carboxamide] yielded an IC50 of 100 to 1000 nM.
`C[C@H]1CCN1c1ccc2cc(C(=O)N[C@H]3CC[C@H](C(C)(C)O)CC3)cnc2n1` [Example 9, N-(trans-4-(2-Hydroxypropan-2-yl)cyclohexyl)-7-((S)-2-methylazetidin-1-yl)-1,8-naphthyridine-3-carboxamide] showed an IC50 of less than 10 nM.
In the case of `CC(C)(O)[C@H]1CC[C@H](NC(=O)c2cnc3cc(C4CC4)ncc3c2)CC1` [Example 10, 7-Cyclopropyl-N-((trans)-4-(2-hydroxypropan-2-yl)cyclohexyl)-1,6-naphthyridine-3-carboxamide], the IC50 is reported as 10 to 79.4 nM.
`C[C@@H]1CCN1c1cc2ncc(C(=O)N[C@H]3CC[C@H](C(C)(C)O)CC3)cc2cn1` [Example 12, N-(trans-4-(2-Hydroxypropan-2-yl)cyclohexyl)-7-((R)-2-methylazetidin-1-yl)-1,6-naphthyridine-3-carboxamide] showed an IC50 of 100 to 1000 nM.
Molecule `C[C@H]1CCN1c1cc2ncc(C(=O)N[C@H]3CC[C@H](C(C)(C)O)CC3)cc2cn1` [Example 13, N-(trans-4-(2-Hydroxypropan-2-yl)cyclohexyl)-7-((S)-2-methylazetidin-1-yl)-1,6-naphthyridine-3-carboxamide] has an IC50 of less than 10 nM.
`CC(C)(O)[C@H]1CC[C@H](NC(=O)c2cnc3cc(NC4CC4)ncc3c2)CC1` [Example 14, 7-(Cyclopropylamino)-N-(trans-4-(2-hydroxypropan-2-yl)cyclohexyl)-1,6-naphthyridine-3-carboxamide] gave an IC50 of 10 to 79.4 nM.
`C[C@]1(O)C[C@@H](NC(=O)c2cnc3cc(N4CCC4)ncc3c2)C1` [Example 15, 7-(Azetidin-1-yl)-N-((1s,3s)-3-hydroxy-3-methylcyclobutyl)-1,6-naphthyridine-3-carboxamide] gave an IC50 of 10 to 79.4 nM.
For `CC(C)(O)[C@H]1CC[C@H](NC(=O)c2cnc3nc(NCC(F)F)ccc3c2)CC1` [Example 16, 7-((2,2-Difluoroethyl)amino)-N-(trans-4-(2-hydroxypropan-2-yl)cyclohexyl)-1,8-naphthyridine-3-carboxamide], the IC50 was 100 to 1000 nM.
Work on `CC(C)(O)[C@H]1CC[C@H](NC(=O)c2cnc3nc(NCC(F)(F)F)ccc3c2)CC1` [Example 17, N-(trans-4-(2-Hydroxypropan-2-yl)cyclohexyl)-7-((2,2,2-trifluoroethyl)amino)-1,8-naphthyridine-3-carboxamide] yielded an IC50 of 100 to 1000 nM.
In the case of `C[C@]1(O)C[C@@H](NC(=O)c2cnc3nc(N4CCC4)ccc3c2)C1` [Example 18, 7-(Azetidin-1-yl)-N-((1s,3s)-3-hydroxy-3-methylcyclobutyl)-1,8-naphthyridine-3-carboxamide], the IC50 is reported as 100 to 1000 nM.
For `O=C(N[C@H]1CCNC1=O)c1cnc2nc(N3CCC3)ccc2c1` [Example 19, (S)-7-(Azetidin-1-yl)-N-(2-oxopyrrolidin-3-yl)-1,8-naphthyridine-3-carboxamide], the IC50 was 10 to 79.4 nM.
`O=C(N[C@H]1CCNC1=O)c1cnc2cc(N3CCC3)ncc2c1` [Example 20, (S)-7-(Azetidin-1-yl)-N-(2-oxopyrrolidin-3-yl)-1,6-naphthyridine-3-carboxamide] gave an IC50 of 10 to 79.4 nM.
In the case of `C[C@H]1CCN1c1cc2ncc(C(=O)N[C@H]3CCNC3=O)cc2cn1` [Example 22, 7-((S)-2-Methylazetidin-1-yl)-N—((S)-2-oxopyrrolidin-3-yl)-1,6-naphthyridine-3-carboxamide], the IC50 is reported as 10 to 79.4 nM.
`C[C@H]1CCN1c1cc2ncc(C(=O)N[C@H]3C[C@@](C)(O)C3)cc2cn1` [Example 23, N-((1s,3R)-3-Hydroxy-3-methylcyclobutyl)-7-((S)-2-methylazetidin-1-yl)-1,6-naphthyridine-3-carboxamide] gave an IC50 of 100 to 1000 nM.
